Among the data in patent US20080146555A1, “Uses of Kinase Inhibitors and Compositions Thereof” (GPC Biotech, Inc, priority 2004, published 2008) are IC50 values, retold here.

pIC50: −log10 of the molar value.

This assay relates to HCT-116 cells. The assay can be described thus: Calcein AM viability assay, HCT-116. As to conditions: Homo sapiens, HCT-116, non-protein adjusted, Table 4; read-out: HCT-116 viability IC50. The format is cell-based. The procedure:
The potency of the subject kinase inhibitors, as measured by loss of cellular viability, was determined with the Calcein AM assay (Molecular Probes). Calcein AM is a substrate of intracellular esterases, which is cleaved only in viable cells to generate a fluorescent product that can be quantified with a fluorescent plate reader. The fluorescent signal is proportional to the number of viable cells, and thus loss of signal in response to the exposure of cells to the subject kinase inhibitors correlates with a loss of viability. This assay not only distinguishes cell cycle arrest, in which cells may still by viable, from loss of viability, and is thus well suited for the evaluation of the subject kinase inhibitors. A compound that is a potent cytotoxic agent may cause significant loss of cell viability in such an assay.
Cellular IC50's were determined in the human colorectal carcinoma cell line, HCT-116, and the normal human fibroblast, IMR90. Protein adjusted IC50's were also determined in HCT-116. Results of such viability assays are presented in Table 2 (HCT-116 (viability/protein adjusted) and IMR-90). IC50's (μM, non-protein adjusted) for the viability assay against HCT-116 cells are shown for further compounds of the invention in Table 4.
HCT-116 or IMR90 cells were recovered from sub-confluent plates by trypsinization and 1,000 or 4,000 cells, respectively, were plated in 24-well dishes and incubated overnight at 37° C., 5% CO2. HCT-116 cells were cultured in RPMI-1640, 10% FCS, and IMR90 cells were cultured in Minimum Essential Medium-alpha, 10% FCS. After overnight incubation to allow adherence, the media was aspirated from each well and replaced with media containing a test compound at a concentration from 0 to 250 nM, spanning a total of 7 doses. The plates were returned to the incubator and cultured for an additional 72 hours (3 days). […] After 72-hours incubation with the test compound, the cells were washed twice with 1×PBS, taking special care to remove all residual buffer.
A 5 μM Calcein AM solution was prepared by dissolving a 50 μg aliquot of Calcein (Molecular Probes catalog #C3100) in 50 μl DMSO. After the Calcein had completely dissolved (10 minutes at room temperature), it was diluted into 10 ml PBS. Calcein/PBS (0.5 ml) was added to each well. The plates were incubated for 75 minutes at 37° C. (protected from light) and the fluorescent signal was read on a fluorescent plate reader (excitation 485/20 and emission 530/25).
Consider `O=C(Nc1cccc2c1C(=O)c1c(-c3ccc(OCC(=O)N4CCN(c5ccccn5)CC4)cc3)n[nH]c1-2)NN1CCOCC1` [Compound A81], for which the pIC50 (as a rule, the IC50 on a negative log10 scale, so that one unit is a factor of ten) was over 7.00.
To `O=C(Nc1cccc2c1C(=O)c1c-2n[nH]c1-c1ccc(OCCN2CCOCC2)cc1)NN1CCOCC1` [Compound A3] belongs over 7.00; to `CCOC(=O)CN1CCN(NC(=O)Nc2cccc3c2C(=O)c2c-3n[nH]c2-c2ccc(OCCN3CCCC3)cc2)CC1` [Compound A26], over 8.00.
In the case of `CCOC(=O)C1CCN(Cc2ccc(-c3n[nH]c4c3C(=O)c3c(NC(=O)NN5CCOCC5)cccc3-4)cc2)CC1` [Compound B9], the pIC50 was over 7.00.
Consider `O=C(Nc1cccc2c1C(=O)c1c-2n[nH]c1-c1ccc(S(=O)(=O)N2CCNCC2)cc1)NN1CCOCC1` [Compound A56], for which the pIC50 is over 7.00.
Consider `CCN1CCN(C(=O)COc2ccc(-c3n[nH]c4c3C(=O)c3c(NC(=O)NN5CCOCC5)cccc3-4)cc2)CC1` [Compound A78], for which the pIC50 is over 8.00.
Regarding `Cc1noc(COc2ccc(-c3[nH]nc4c3C(=O)c3c(NC(=O)NN5CCN(C)CC5)cccc3-4)cc2)n1` [Compound A45], the pIC50 was over 8.00.
With `CC(C)N1CCN(Cc2ccc(-c3[nH]nc4c3C(=O)c3c(NC(=O)NN5CCOCC5)cccc3-4)cc2)CC1` [Compound B17], the pIC50 was over 8.00.
To `CC(C)N1CCN(CCOc2ccc(-c3n[nH]c4c3C(=O)c3c(NC(=O)NN5CCOCC5)cccc3-4)c(F)c2)CC1` [Compound A16] belongs over 7.00.
`CN1CCN(NC(=O)Nc2cccc3c2C(=O)c2c-3n[nH]c2-c2ccc(O)cc2)CC1` [Compound A15]: the pIC50 is over 7.00.
For `Cc1cc(-c2[nH]nc3c2C(=O)c2c(NC(=O)NN4CCN(C)CC4)cccc2-3)ccc1OCCN1CCN(C(C)C)CC1` [Compound A18], the pIC50 is over 7.00.
Consider `CN1CCN(Cc2ccc(-c3n[nH]c4c3C(=O)c3c(NC(=O)NN5CCOCC5)cccc3-4)cc2)CC1` [Compound A49], for which the pIC50 was over 7.00.
For `Cc1cc(OCCN2CCCCC2)ccc1-c1[nH]nc2c1C(=O)c1c(NC(=O)NN3CCN(C)CC3)cccc1-2` [Compound A8], the pIC50 was over 7.00.
On to `O=C(Nc1cccc2c1C(=O)c1c(-c3ccc(CNCCO)cc3)n[nH]c1-2)NN1CCOCC1` [Compound B10], for which the pIC50 was over 7.00.
The figure for `CN(C)C(=O)CN1CCN(NC(=O)Nc2cccc3c2C(=O)c2c-3n[nH]c2-c2ccc(OCCN3CCCC3)cc2)CC1` [Compound A41] is over 7.00; for `O=C(Nc1cccc2c1C(=O)c1c(-c3ccc(CN4CC[C@@H](O)C4)cc3)n[nH]c1-2)NN1CCOCC1` [Compound B8] it is over 7.00; for `O=C(Nc1cccc2c1C(=O)c1c-2n[nH]c1-c1ccc(CN2CCN(c3ncccn3)CC2)cc1)NN1CCOCC1` [Compound B15] it is over 8.00.
Turning to `O=C(Nc1cccc2c1C(=O)c1c(-c3ccc(OCC(=O)N4CCN(Cc5ccccc5)CC4)cc3)n[nH]c1-2)NN1CCOCC1` [Compound A79], the pIC50 was over 7.00.
As for `O=C(Nc1cccc2c1C(=O)c1c(-c3ccc(CN4CCC(O)CC4)cc3)n[nH]c1-2)NN1CCOCC1` [Compound B5], the pIC50 is over 7.00.
`O=C(Nc1cccc2c1C(=O)c1c(-c3ccc(CNCc4ccccn4)cc3)n[nH]c1-2)NN1CCOCC1` [Compound B13]: the pIC50 is over 8.00.
As to `O=C(O)COc1ccc(-c2n[nH]c3c2C(=O)c2c(NC(=O)NN4CCOCC4)cccc2-3)cc1` [Compound A68], the pIC50 was over 6.00.
In the case of `O=C(Nc1cccc2c1C(=O)c1c(-c3ccc(CN(CCO)CCO)cc3)n[nH]c1-2)NN1CCOCC1` [Compound B2], the pIC50 is over 7.00.
The figure for `CN(C)C(=O)COc1ccc(-c2[nH]nc3c2C(=O)c2c(NC(=O)NN4CCOCC4)cccc2-3)cc1` [Compound A34] is over 7.00.
`O=C(Nc1cccc2c1C(=O)c1c(-c3ccc(CN4CCN(c5ccccn5)CC4)cc3)n[nH]c1-2)NN1CCOCC1` [Compound A82]: the pIC50 was over 7.00.
Turning to `CC(C)N1CCN(NC(=O)Nc2cccc3c2C(=O)c2c-3n[nH]c2-c2ccc(OCCN3CCCC3)cc2)CC1` [Compound A23], the pIC50 is over 7.00.
For the compound `O=C(Nc1cccc2c1C(=O)c1c-2n[nH]c1-c1ccc(CN2CCN(c3ccncc3)CC2)cc1)NN1CCOCC1` [Compound B14], the pIC50 is over 8.00.
On to `O=C(Nc1cccc2c1C(=O)c1c(-c3ccc(OCCN4CCOCC4)c(F)c3)n[nH]c1-2)NN1CCOCC1` [Compound A27], for which the pIC50 was over 7.00.
For `O=C(Nc1cccc2c1C(=O)c1c(-c3ccc(CN4CCC[C@H]4CO)cc3)n[nH]c1-2)NN1CCOCC1` [Compound B6], the pIC50 was over 7.00.
Take `O=C(Nc1cccc2c1C(=O)c1c(-c3ccc(CNC(CO)CO)cc3)n[nH]c1-2)NN1CCOCC1` [Compound B1]: the pIC50 was over 6.00.
For `O=C(Nc1cccc2c1C(=O)c1c-2n[nH]c1-c1ccc(OCC(=O)N2CCNCC2)cc1)NN1CCOCC1` [Compound C5], the pIC50 was over 6.60.
For `CC(C)N1CCN(CCOc2ccc(-c3n[nH]c4c3C(=O)c3c(NC(=O)NN5CCOCC5)cccc3-4)cc2F)CC1` [Compound A22], the pIC50 is over 7.00.
Regarding `O=C(Nc1cccc2c1C(=O)c1c(-c3ccc(CN4CCCC4)cc3)n[nH]c1-2)NN1CCOCC1` [Compound A51], the pIC50 is over 7.00.
For `O=C(Nc1cccc2c1C(=O)c1c(-c3ccc(CN4CCN(CCO)CC4)cc3)n[nH]c1-2)NN1CCOCC1` [Compound B3], the pIC50 is over 7.00.
To `Cc1cc(OCCN2CCN(C(C)C)CC2)ccc1-c1[nH]nc2c1C(=O)c1c(NC(=O)NN3CCN(C)CC3)cccc1-2` [Compound A19] belongs over 7.00; to `O=C(Nc1cccc2c1C(=O)c1c-2n[nH]c1-c1ccc(O)c(CN2CCOCC2)c1)NN1CCOCC1` [Compound A10], over 7.00; to `Cc1cc(OCCCN2CCN(C(C)C)CC2)ccc1-c1[nH]nc2c1C(=O)c1c(NC(=O)NN3CCOCC3)cccc1-2` [Compound A21], over 7.00.
For the compound `O=C(Nc1cccc2c1C(=O)c1c(-c3ccc(CN4CCOCC4)cc3)n[nH]c1-2)NN1CCOCC1` [Compound A47], the pIC50 is over 8.00.
`CN1CCN(NC(=O)Nc2cccc3c2C(=O)c2c-3n[nH]c2-c2ccc(OCCn3cccn3)cc2)CC1` [Compound A17]: the pIC50 was over 7.00.
As to `CN1CCN(NC(=O)Nc2cccc3c2C(=O)c2c(-c4ccc(OCCN5CCCC5)c(F)c4)n[nH]c2-3)CC1` [Compound A14], the pIC50 was over 7.00.
Take `CN1CCN(NC(=O)Nc2cccc3c2C(=O)c2c(-c4ccc(OCCN5CCCC5)cc4F)n[nH]c2-3)CC1` [Compound A12]: the pIC50 is over 7.00.
As to `CC(C)N1CCN(CCCOc2ccc(-c3[nH]nc4c3C(=O)c3c(NC(=O)NN5CCOCC5)cccc3-4)cc2)CC1` [Compound A20], the pIC50 is over 7.00.
Take `O=C(Nc1cccc2c1C(=O)c1c(-c3ccc(OCc4nnn[nH]4)cc3)n[nH]c1-2)NN1CCOCC1` [Compound A74]: the pIC50 is under 6.60.
In the case of `O=C(Nc1cccc2c1C(=O)c1c(-c3ccc(CNCc4cccnc4)cc3)n[nH]c1-2)NN1CCOCC1` [Compound B12], the pIC50 was over 7.00.
The figure for `CC(C)N1CCN(S(=O)(=O)c2ccc(-c3[nH]nc4c3C(=O)c3c(NC(=O)NN5CCOCC5)cccc3-4)cc2)CC1` [Compound A57] is over 7.00; for `O=C(Nc1cccc2c1C(=O)c1c(-c3ccc(OCC(=O)N4CCN(c5ccccc5)CC4)cc3)n[nH]c1-2)NN1CCOCC1` [Compound A80] it is over 7.00.
`CN1CCN(C(=O)COc2ccc(-c3n[nH]c4c3C(=O)c3c(NC(=O)NN5CCOCC5)cccc3-4)cc2)CC1` [Compound A77]: the pIC50 is over 7.00.
As for `Cc1cc(OCCn2cccn2)ccc1-c1[nH]nc2c1C(=O)c1c(NC(=O)NN3CCN(C)CC3)cccc1-2` [Compound A11], the pIC50 was over 7.00.
Take `Cc1cc(OCCN2CCCN(C)CC2)ccc1-c1[nH]nc2c1C(=O)c1c(NC(=O)NN3CCN(C)CC3)cccc1-2` [Compound A9]: the pIC50 is over 7.00.
With `Cc1cc(OCCN2CCCC2)ccc1-c1[nH]nc2c1C(=O)c1c(NC(=O)NN3CCOCC3)cccc1-2` [Compound A29], the pIC50 was over 7.00.
Take `CN1CCN(CCOc2ccc(-c3n[nH]c4c3C(=O)c3c(NC(=O)NN5CCN(C)CC5)cccc3-4)c(F)c2)CC1` [Compound A13]: the pIC50 was over 8.00.
The figure for `Cc1cc(-c2[nH]nc3c2C(=O)c2c(NC(=O)NN4CCOCC4)cccc2-3)ccc1OCCN1CCCC1` [Compound A25] is over 8.00; for `CC(C)OC(=O)CN1CCN(NC(=O)Nc2cccc3c2C(=O)c2c-3n[nH]c2-c2ccc(OCCN3CCCC3)cc2)CC1` [Compound A40] it is over 7.00.
